27 compounds from patent US20250144094A1 (Erasca, Inc., priority 2021, published 2025) can be followed below.

Recombinant human ULK1 (1-649), sequence (O75385 1-649): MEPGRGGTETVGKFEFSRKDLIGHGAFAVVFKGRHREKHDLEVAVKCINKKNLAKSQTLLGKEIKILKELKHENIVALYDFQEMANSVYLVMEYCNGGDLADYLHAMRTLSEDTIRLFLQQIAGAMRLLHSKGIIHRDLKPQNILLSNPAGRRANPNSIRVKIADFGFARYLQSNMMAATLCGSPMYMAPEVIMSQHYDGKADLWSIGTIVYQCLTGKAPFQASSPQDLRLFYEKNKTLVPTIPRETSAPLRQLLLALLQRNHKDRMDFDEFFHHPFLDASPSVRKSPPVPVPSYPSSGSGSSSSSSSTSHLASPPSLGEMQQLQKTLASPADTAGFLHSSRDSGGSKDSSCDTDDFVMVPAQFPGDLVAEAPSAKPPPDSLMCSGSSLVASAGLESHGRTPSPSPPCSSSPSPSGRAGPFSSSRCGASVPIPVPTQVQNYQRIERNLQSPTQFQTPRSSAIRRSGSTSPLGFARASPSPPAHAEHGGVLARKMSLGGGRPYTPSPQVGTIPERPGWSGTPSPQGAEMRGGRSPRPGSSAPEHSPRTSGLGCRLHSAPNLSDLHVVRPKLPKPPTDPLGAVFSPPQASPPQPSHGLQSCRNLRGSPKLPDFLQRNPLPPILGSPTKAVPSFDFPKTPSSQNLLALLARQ

The target of this test is Recombinant human ULK1 (1-649) (Homo sapiens (Human), UniProt O75385). Description: ULK1 ADP Glo kinase activity assay (MBP substrate). The settings on record: 25° C., 40 minutes, read-out: ULK1 biochemical IC50. An outline of the steps:
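GST-tagged ULK1 (1-649) from Sf9 cells phosphorylated MBP, with ATP, for 40 min at 25 °C across a 12-point series from 10 uM. ADP formed was quantified by ADP-Glo luminescence against DMSO controls. IC50 came from a four-parameter variable-slope fit of log concentration.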
(In general: In ADP-Glo the light output rises with the ADP produced.)
In the case of `CN1CCc2cc(Nc3ncc(C(F)(F)F)c(-c4cc(S(C)(=O)=O)c(C(=O)N5CCOCC5)s4)n3)c(Cl)cc2C1` [Example 61, (5-(2-((7-chloro-2-methyl-1,2,3,4-tetrahydroisoquinolin-6-yl)amino)-5-(trifluoromethyl)pyrimidin-4-yl)-3-(methylsulfonyl)thiophen-2-yl)(morpholino)methanone], the IC50 lay in the range of 100 to 500 nM.

Consider `CS(=O)(=O)c1cc(-c2nc(Nc3cc4c(cc3Cl)CNCC4)ncc2C(F)(F)F)sc1CN1CCOCC1` [Example 62, 7-chloro-N-(4-(4-(methylsulfonyl)-5-(morpholinomethyl)thiophen-2-yl)-5-(trifluoromethyl)pyrimidin-2-yl)-1,2,3,4-tetrahydroisoquinolin-6-amine], for which the IC50 lay in the range of 10 to 50 nM.

`CN1CCc2cc(Nc3ncc(C(F)(F)F)c(-c4cc(S(C)(=O)=O)c(C(N)=O)s4)n3)c(Cl)cc2C1` [Example 63, 5-(2-((7-Chloro-2-methyl-1,2,3,4-tetrahydroisoquinolin-6-yl)amino)-5-(trifluoromethyl)pyrimidin-4-yl)-3-(methylsulfonyl)thiophene-2-carboxamide]: the IC50 is no more than 10 nM.

For the compound `O=S1(=O)CCNCc2sc(-c3nc(Nc4cc5c(cc4Cl)CNCC5)ncc3C(F)(F)F)cc21` [Example 64, 7-(2-((7-chloro-1,2,3,4-tetrahydroisoquinolin-6-yl)amino)-5-(trifluoromethyl)pyrimidin-4-yl)-2,3,4,5-tetrahydrothieno[2,3-f][1,4]thiazepine 1,1-dioxide], the IC50 was no more than 10 nM.

On to `COCCOc1sc(-c2nc(Nc3cc4c(cc3Cl)CN(C)CC4)ncc2C(F)(F)F)cc1C(N)=O` [Example 66, 5-(2-((7-chloro-2-methyl-1,2,3,4-tetrahydroisoquinolin-6-yl)amino)-5-(trifluoromethyl)pyrimidin-4-yl)-2-(2-methoxyethoxy)thiophene-3-carboxamide], for which the IC50 is no more than 10 nM.

With `CN1CCc2cc(Nc3ncc(C(F)(F)F)c(-c4cc(S(C)(=O)=O)c(CN5CCOCC5)s4)n3)c(Cl)cc2C1` [Example 67, 7-chloro-2-methyl-N-(4-(4-(methylsulfonyl)-5-(morpholinomethyl)thiophen-2-yl)-5-(trifluoromethyl)pyrimidin-2-yl)-1,2,3,4-tetrahydroisoquinolin-6-amine], the IC50 lay in the range of 10 to 50 nM.

Regarding `CSc1cc2c(cc1Nc1ncc(C(F)(F)F)c(-c3cc(S(C)(=O)=O)cs3)n1)CCN(C)C2` [Example 68, 2-methyl-N-(4-(4-(methylsulfonyl)thiophen-2-yl)-5-(trifluoromethyl)pyrimidin-2-yl)-7-(methylthio)-1,2,3,4-tetrahydroisoquinolin-6-amine], the half-maximal inhibitory concentration (IC50) is no more than 10 nM.

With `CN1CCc2cc(Nc3ncc(C(F)(F)F)c(-c4cc5c(s4)CNCCS5(=O)=O)n3)c(Cl)cc2C1` [Example 69, 7-(2-((7-chloro-2-methyl-1,2,3,4-tetrahydroisoquinolin-6-yl)amino)-5-(trifluoromethyl)pyrimidin-4-yl)-2,3,4,5-tetrahydrothieno[2,3-f][1,4]thiazepine 1,1-dioxide], the IC50 was no more than 10 nM.

As for `O=C1NCCOc2sc(-c3nc(Nc4cc5c(cc4Cl)CNCC5)ncc3C(F)(F)F)cc21` [Example 71, 7-(2-((7-chloro-1,2,3,4-tetrahydroisoquinolin-6-yl)amino)-5-(trifluoromethyl)pyrimidin-4-yl)-3,4-dihydrothieno[3,2-f][1,4]oxazepin-5(2H)-one], the concentration for half-maximal inhibition (IC50) is no more than 10 nM.

For the compound `CCc1cc2c(cc1Nc1ncc(C(F)(F)F)c(-c3cc(S(C)(=O)=O)cs3)n1)CNC2` [Example 72, 6-ethyl-N-(4-(4-(methylsulfonyl)thiophen-2-yl)-5-(trifluoromethyl)pyrimidin-2-yl)isoindolin-5-amine], the 50% inhibitory concentration (IC50) is no more than 10 nM.

For the compound `CS(=O)(=O)c1csc(-c2nc(Nc3cc4c(cc3Cl)CNC4)ncc2C(F)(F)F)c1` [Example 73, 6-chloro-N-(4-(4-(methylsulfonyl)thiophen-2-yl)-5-(trifluoromethyl)pyrimidin-2-yl)isoindolin-5-amine], the IC50 was no more than 10 nM.

Take `CS(=O)(=O)c1cc(-c2nc(Nc3cc4c(cc3Cl)CNCC4)ncc2C(F)(F)F)sc1C1=CCOCC1` [Example 75, 7-chloro-N-(4-(5-(3,6-dihydro-2H-pyran-4-yl)-4-(methylsulfonyl)thiophen-2-yl)-5-(trifluoromethyl)pyrimidin-2-yl)-1,2,3,4-tetrahydroisoquinolin-6-amine]: the IC50 was no more than 10 nM.

Turning to `CCc1cc2c(cc1Nc1ncc(C(F)(F)F)c(-c3cc(S(C)(=O)=O)cs3)n1)CN(C)C2` [Example 76, 6-ethyl-2-methyl-N-(4-(4-(methylsulfonyl)thiophen-2-yl)-5-(trifluoromethyl)pyrimidin-2-yl)isoindolin-5-amine], the IC50 was 10 to 50 nM.

With `CS(=O)(=O)c1cc(-c2nc(Nc3cc4c(cc3Cl)CNCC4)ncc2C(F)(F)F)sc1C1=CCS(=O)(=O)CC1` [Example 78, 4-(5-(2-((7-chloro-1,2,3,4-tetrahydroisoquinolin-6-yl)amino)-5-(trifluoromethyl)pyrimidin-4-yl)-3-(methylsulfonyl)thiophen-2-yl)-3,6-dihydro-2H-thiopyran 1,1-dioxide], the IC50 is no more than 10 nM.

Consider `Cc1c(S(C)(=O)=O)csc1-c1nc(Nc2cc3c(cc2Cl)CNCC3)ncc1C(F)(F)F` [Example 79, 7-chloro-N-(4-(3-methyl-4-(methylsulfonyl)thiophen-2-yl)-5-(trifluoromethyl)pyrimidin-2-yl)-1,2,3,4-tetrahydroisoquinolin-6-amine], for which the IC50 is 100 to 500 nM.

For the compound `CN1Cc2cc(F)c(Nc3ncc(C(F)(F)F)c(-c4cc(S(C)(=O)=O)cs4)n3)cc2C1` [Example 80, 6-fluoro-N-[4-(4-methanesulfonylthiophen-2-yl)-5-(trifluoromethyl)pyrimidin-2-yl]-2-methyl-2,3-dihydro-1H-isoindol-5-amine], the IC50 is no more than 10 nM.

`O=C1NCCS(=O)(=O)c2cc(-c3nc(Nc4cc5c(cc4Cl)CNCC5)ncc3C(F)(F)F)sc21` [Example 82, 7-[2-[(7-chloro-1,2,3,4-tetrahydroisoquinolin-6-yl)amino]-5-(trifluoromethyl)pyrimidin-4-yl]-1,1-dioxo-3,4-dihydro-2H-thieno[2,3-f][1,4]thiazepin-5-one]: the half-inhibitory concentration (IC50) was no more than 10 nM.

As for `CS(=O)(=O)c1cc(-c2nc(Nc3cc4c(cc3Cl)CNCC4)ncc2C(F)(F)F)sc1N1CCOCC1` [Example 83, 7-Chloro-N-[4-(4-methylsulfonyl-5-morpholino-2-thienyl)-5-(trifluoromethyl)pyrimidin-2-yl]-1,2,3,4-tetrahydroisoquinolin-6-amine], the IC50 is no more than 10 nM.

`O=S1(=O)NCCCc2sc(-c3nc(Nc4cc5c(cc4Cl)CNCC5)ncc3C(F)(F)F)cc21` [Example 84, 7-(2-((7-chloro-1,2,3,4-tetrahydroisoquinolin-6-yl)amino)-5-(trifluoromethyl)pyrimidin-4-yl)-2,3,4,5-tetrahydrothieno[2,3-f][1,2]thiazepine 1,1-dioxide]: the half-inhibitory concentration (IC50) is no more than 10 nM.

Take `O=S1(=O)NCCOc2sc(-c3nc(Nc4cc5c(cc4Cl)CNCC5)ncc3C(F)(F)F)cc21` [Example 85, 7-chloro-N-[4-(1,1-dioxo-3,4-dihydro-2H-thieno[2,3-b][1,4,5]oxathiazepin-7-yl)-5-(trifluoromethyl)pyrimidin-2-yl]-1,2,3,4-tetrahydroisoquinolin-6-amine]: the IC50 is no more than 10 nM.

For the compound `CN1CCc2cc(Nc3ncc(C(F)(F)F)c(-c4cc5c(s4)C(=O)NCCS5(=O)=O)n3)c(Cl)cc2C1` [Example 86, 7-(2-((7-chloro-2-methyl-1,2,3,4-tetrahydroisoquinolin-6-yl)amino)-5 (trifluoromethyl)pyrimidin-4-yl)-3,4-dihydrothieno[2,3-f][1,4]thiazepin-5(2H)-one 1,1-dioxide], the 50% inhibitory concentration (IC50) was no more than 10 nM.

Turning to `CN1CCc2cc(Nc3ncc(C(F)(F)F)c(-c4cc(S(C)(=O)=O)c(C5CCOCC5)s4)n3)c(Cl)cc2C1` [Example 87, 7-chloro-2-methyl-N-(4-(4-(methylsulfonyl)-5-(tetrahydro-2H-pyran-4-yl)thiophen-2-yl)-5-(trifluoromethyl)pyrimidin-2-yl)-1,2,3,4-tetrahydroisoquinolin-6-amine], the IC50 was no more than 10 nM.

Regarding `CN1Cc2cc(Nc3ncc(C(F)(F)F)c(-c4cc(S(C)(=O)=O)cs4)n3)c(C3CC3)cc2C1` [Example 88, 6-cyclopropyl-N-[4-(4-methanesulfonylthiophen-2-yl)-5-(trifluoromethyl)pyrimidin-2-yl]-2-methyl-2,3-dihydro-1H-isoindol-5-amine], the IC50 is no more than 10 nM.

Regarding `CS(=O)(=O)c1csc(-c2nc(Nc3cc4c(cc3Cl)CNCC4)ncc2C2CC2)c1` [Example 89, 7-chloro-N-(5-cyclopropyl-4-(4-(methylsulfonyl)thiophen-2-yl)pyrimidin-2-yl)-1,2,3,4-tetrahydroisoquinolin-6-amine], the IC50 fell in the range of 10 to 50 nM.

As to `CS(=O)(=O)c1cc(-c2nc(Nc3cc4c(cc3Cl)CNCC4)ncc2C(F)(F)F)sc1N1CCS(=O)(=O)CC1` [Example 90, 4-(5-(2-((7-chloro-1,2,3,4-tetrahydroisoquinolin-6-yl)amino)-5-(trifluoromethyl)pyrimidin-4-yl)-3-(methylsulfonyl)thiophen-2-yl)thiomorpholine 1,1-dioxide], the IC50 was no more than 10 nM.

For `CS(=O)(=O)c1csc(-c2nc(Nc3cc4c(cc3F)CNCC4)ncc2C(F)(F)F)c1` [Example 91, 7-fluoro-N-(4-(4-(methylsulfonyl)thiophen-2-yl)-5-(trifluoromethyl)pyrimidin-2-yl)-1,2,3,4-tetrahydroisoquinolin-6-amine], the half-inhibitory concentration (IC50) was no more than 10 nM.

As to `Cc1cc2c(cc1Nc1ncc(C(F)(F)F)c(-c3cc(S(C)(=O)=O)cs3)n1)CN(C)C2` [Example 92, 2,6-dimethyl-N-(4-(4-(methylsulfonyl)thiophen-2-yl)-5-(trifluoromethyl)pyrimidin-2-yl)isoindolin-5-amine], the IC50 was no more than 10 nM.

By IC50 is commonly meant the point on the concentration scale where inhibition reaches its midpoint.
